Experiment [1] deals with T1, Human PDGFRα, cytoplasmic domain (GST-PDGFRα) (Homo sapiens, UniProt P16234).
T1 construct: made in house
Put plainly: Human PDGFRα biochemical inhibition assay (off-chip Mobility Shift Assay).

The target in experiment [2] is T2, Human PDGFRβ, cytoplasmic domain (GST-PDGFRβ) (Homo sapiens, UniProt P09619).
T2 construct: made in house
Put plainly: Human PDGFRβ biochemical inhibition assay (off-chip Mobility Shift Assay). Put shortly: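 GST-tagged cytoplasmic domain (aa 557-1106) from baculovirus was incubated 1 h at room temperature with compound, CSKtide, ATP at Km and Mg²⁺ in HEPES buffer, pH 7.5. Phosphorylated and unphosphorylated peptide were separated by off-chip mobility shift, and the product ratio P/(P+S) gave percent inhibition.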

By IC50 is commonly meant the concentration that gives 50% inhibition.

T1 sequence (P16234 550-1089 T674I): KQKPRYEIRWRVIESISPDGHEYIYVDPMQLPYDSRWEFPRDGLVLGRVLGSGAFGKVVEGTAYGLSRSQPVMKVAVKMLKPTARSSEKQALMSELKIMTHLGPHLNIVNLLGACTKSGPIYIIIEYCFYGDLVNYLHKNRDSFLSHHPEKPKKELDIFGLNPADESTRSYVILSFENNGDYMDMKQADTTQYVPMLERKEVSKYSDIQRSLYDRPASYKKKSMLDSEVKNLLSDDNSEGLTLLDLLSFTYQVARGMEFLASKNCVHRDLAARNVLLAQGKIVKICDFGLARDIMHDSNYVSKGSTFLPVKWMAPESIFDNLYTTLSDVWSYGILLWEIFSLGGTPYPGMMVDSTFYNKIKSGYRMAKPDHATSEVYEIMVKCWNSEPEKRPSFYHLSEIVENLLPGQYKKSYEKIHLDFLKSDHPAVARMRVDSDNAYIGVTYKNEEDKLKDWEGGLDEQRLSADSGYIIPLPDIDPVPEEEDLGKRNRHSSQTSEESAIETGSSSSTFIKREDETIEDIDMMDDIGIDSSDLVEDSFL
T2 sequence (P09619 with tags, fused parts or gaps): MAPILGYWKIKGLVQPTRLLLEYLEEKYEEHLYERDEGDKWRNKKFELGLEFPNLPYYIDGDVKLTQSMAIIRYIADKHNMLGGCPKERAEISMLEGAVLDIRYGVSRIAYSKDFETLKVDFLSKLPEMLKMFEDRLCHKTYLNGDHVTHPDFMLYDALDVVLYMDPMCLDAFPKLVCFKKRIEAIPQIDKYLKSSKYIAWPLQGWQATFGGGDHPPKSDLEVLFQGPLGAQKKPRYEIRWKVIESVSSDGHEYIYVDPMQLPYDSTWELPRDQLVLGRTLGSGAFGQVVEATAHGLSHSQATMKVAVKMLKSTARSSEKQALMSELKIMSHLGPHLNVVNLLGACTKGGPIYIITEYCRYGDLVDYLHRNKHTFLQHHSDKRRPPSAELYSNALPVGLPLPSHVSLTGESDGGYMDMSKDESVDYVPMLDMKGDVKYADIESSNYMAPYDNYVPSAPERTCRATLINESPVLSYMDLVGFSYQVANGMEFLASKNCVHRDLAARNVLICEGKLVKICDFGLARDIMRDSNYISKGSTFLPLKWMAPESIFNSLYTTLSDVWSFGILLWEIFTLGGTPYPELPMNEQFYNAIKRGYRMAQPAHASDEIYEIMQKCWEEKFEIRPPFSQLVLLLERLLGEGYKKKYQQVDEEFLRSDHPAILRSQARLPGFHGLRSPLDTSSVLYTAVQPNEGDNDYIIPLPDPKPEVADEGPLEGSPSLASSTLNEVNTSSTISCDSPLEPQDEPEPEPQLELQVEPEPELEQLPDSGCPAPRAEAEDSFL

With `CCn1cc2ncc(N[C@@H](C)c3cccc(NC(=O)c4ccc(CN5CC[C@H](O)C5)c(C)c4)c3)nc2n1` [Compound 471, N-(3-((S)-1-((2-ethyl-2H-pyrazolo[3,4-b]pyrazin-6-yl)amino)ethyl)phenyl)-4-(((S)-3-hydroxypyrrolidin-1-yl)methyl)-3-methylbenzamide], the IC50 in experiment [1] was 300 to 1000 nM; in experiment [2] it was not below 1000 nM.

On to `CC(C)c1cc(C(=O)Nc2cccc([C@H](C)Nc3cnc4cnn(C)c4n3)c2)nn1C` [Compound 162, (S)-5-isopropyl-1-methyl-N-(3-(1-((1-methyl-1H-pyrazolo[3,4-b]pyrazin-6-yl)amino)ethyl)phenyl)-1H-pyrazole-3-carboxamide], for which the IC50 in experiment [1] and in experiment [2] was less than 300 nM in each case.

For `COc1cncc(C(=O)Nc2cccc([C@H](C)Nc3cnc4[nH]cc(-c5cnn(C)c5)c4n3)c2)c1` [Compound 586, (S)-5-methoxy-N-(3-(1-((7-(1-methyl-1H-pyrazol-4-yl)-5H-pyrrolo[2,3-b]pyrazin-2-yl)amino)ethyl)phenyl) nicotinamide], the IC50 in experiment [1] and in experiment [2] was less than 300 nM each time.

In the case of `CCn1cc2ncc(N[C@@H](C)c3cccc(NC(=O)c4cnc(Cl)c(C)c4)c3)nc2n1` [Compound 383, (S)-6-chloro-N-(3-(1-((2-ethyl-2H-pyrazolo[3,4-b]pyrazin-6-yl)amino)ethyl)phenyl)-5-methylnicotinamide], the IC50 in experiment [1] and in experiment [2] was less than 300 nM each time.

As for `CCn1cc2ncc(N[C@@H](C)c3cccc(NC(=O)c4ccc(CN5CCN(C)CC5)c(C(F)F)c4)c3)nc2n1` [Compound 504, (S)-3-(difluoromethyl)-N-(3-(1-((2-ethyl-2H-pyrazolo[3,4-b]pyrazin-6-yl)amino)ethyl)phenyl)-4-((4-methylpiperazin-1-yl)methyl)benzamide], the IC50 in experiment [1] and in experiment [2] was less than 300 nM in each case.

As to `CCn1cc2ncc(N[C@@H](C)c3cc(NC(=O)Cc4cncc(C(F)(F)F)c4)ccc3F)nc2n1` [Compound 685, (S)-N-(3-(1-((2-ethyl-2H-pyrazolo[3,4-b]pyrazin-6-yl)amino)ethyl)-4-fluorophenyl)-2-(5-(trifluoromethyl)pyridin-3-yl) acetamide], the figures for the IC50 in experiment [1] and in experiment [2] were less than 300 nM and 300 to 1000 nM, respectively.

As for `C[C@H](Nc1cnc2cnn(C)c2n1)c1cccc(NC(=O)c2cncc(O)c2)c1` [Compound 241, (S)-5-hydroxy-N-(3-(1-((1-methyl-1H-pyrazolo[3,4-b]pyrazin-6-yl)amino)ethyl)phenyl)nicotinamide], the IC50 in experiment [1] is less than 300 nM; in experiment [2], 300 to 1000 nM.

Consider `CCn1cc2ncc(N[C@@H](C)c3cccc(NC(=O)Cc4ccc(C5CCC5)cn4)c3)nc2n1` [Compound 711, (S)-2-(5-cyclobutylpyridin-2-yl)-N-(3-(1-((2-ethyl-2H-pyrazolo[3,4-b]pyrazin-6-yl)amino)ethyl)phenyl)acetamide], for which the IC50 in experiment [1] was less than 300 nM; in experiment [2], not below 1000 nM.

Turning to `CC(C)c1cc(C(=O)Nc2cccc([C@H](C)Nc3cnc4[nH]ccc4n3)c2)no1` [Compound 553, (S)-N-(3-(1-((5H-pyrrolo[2,3-b]pyrazin-2-yl)amino)ethyl)phenyl)-5-isopropylisoxazole-3-carboxamide], the IC50 in experiment [1] and in experiment [2] was less than 300 nM each time.

For the molecule `CCn1cc2ncc(N[C@@H](C)c3cccc(NC(=O)c4cnc5cnn(C)c5c4)c3)nc2n1` [Compound 62, (S)-N-(3-(1-((2-ethyl-2H-pyrazolo[3,4-b]pyrazin-6-yl)amino)ethyl)phenyl)-1-methyl-1H-pyrazolo[4,3-b]pyridine-6-carboxamide], the results for the IC50 in experiment [1] and in experiment [2] were 300 to 1000 nM and not below 1000 nM, respectively.

For the molecule `CCn1cc2ncc(N[C@@H](C)c3cccc(NC(=O)c4cnc(C5CC5)c(C)c4)c3)nc2n1` [Compound 321, (S)-6-cyclopropyl-N-(3-(1-((2-ethyl-2H-pyrazolo[3,4-b]pyrazin-6-yl)amino)ethyl)phenyl)-5-methylnicotinamide], the IC50 in experiment [1] and in experiment [2] was less than 300 nM each time.

As to `COc1cc(C(=O)Nc2cccc([C@H](C)Nc3cnc4cnn(C)c4n3)c2)cnc1Cl` [Compound 249, (S)-6-chloro-5-methoxy-N-(3-(1-((1-methyl-1H-pyrazolo[3,4-b]pyrazin-6-yl)amino)ethyl)phenyl)nicotinamide], the IC50 in experiment [1] and in experiment [2] was less than 300 nM each time.

In the case of `CCn1cc2ncc(N[C@@H](C)c3cccc(NC(=O)Cc4ccc(C(F)(F)F)cn4)c3)nc2n1` [Compound 688, (S)-N-(3-(1-((2-ethyl-2H-pyrazolo[3,4-b]pyrazin-6-yl)amino)ethyl)phenyl)-2-(5-(trifluoromethyl)pyridin-2-yl) acetamide], the IC50 in experiment [1] is less than 300 nM; in experiment [2] it was not below 1000 nM.

Turning to `CCc1cncc(C(=O)Nc2cccc([C@H](C)Nc3cnc4cn[nH]c4n3)c2)c1` [Compound 91, (S)-N-(3-(1-((1H-pyrazolo[3,4-b]pyrazin-6-yl)amino)ethyl)phenyl)-5-ethylnicotinamide], the IC50 in experiment [1] and in experiment [2] was less than 300 nM throughout.

Regarding `CCn1cc2ncc(N[C@@H](C)c3cccc(NC(=O)c4cnc(N(C)C)s4)c3)nc2n1` [Compound 340, (S)-2-(dimethylamino)-N-(3-(1-((2-ethyl-2H-pyrazolo[3,4-b]pyrazin-6-yl)amino)ethyl)phenyl)thiazole-5-carboxamide], the IC50 in experiment [1] and in experiment [2] was less than 300 nM each time.

For `CCc1cc(C(=O)Nc2cccc([C@H](C)Nc3cnc4cn(CC)nc4n3)c2)ccc1CN1CCN(C)CC1` [Compound 498, (S)-3-ethyl-N-(3-(1-((2-ethyl-2H-pyrazolo[3,4-b]pyrazin-6-yl)amino)ethyl)phenyl)-4-((4-methylpiperazin-1-yl)methyl) benzamide], the IC50 in experiment [1] and in experiment [2] was less than 300 nM in each case.

Turning to `CCn1cc2ncc(N[C@@H](C)c3cccc(NC(=O)c4ccc(N5CCCC5)c(F)c4)c3)nc2n1` [Compound 441, (S)-N-(3-(1-((2-ethyl-2H-pyrazolo[3,4-b]pyrazin-6-yl)amino)ethyl)phenyl)-3-fluoro-4-(pyrrolidin-1-yl)benzamide], the IC50 in experiment [1] and in experiment [2] was less than 300 nM throughout.

As for `CCn1cc2ncc(N[C@@H](C)c3cc(NC(=O)Cc4cnc(C5CC5)c(F)c4)ccc3F)nc2n1` [Compound 691, (S)-2-(6-cyclopropyl-5-fluoropyridin-3-yl)-N-(3-(1-((2-ethyl-2H-pyrazolo[3,4-b]pyrazin-6-yl)amino)ethyl)-4-fluorophenyl)acetamide], the IC50 in experiment [1] was less than 300 nM; in experiment [2] it was not below 1000 nM.

Regarding `CCn1cc2ncc(N[C@@H](C)c3cccc(NC(=O)Cc4ccc5c(n4)OCCC5)c3)nc2n1` [Compound 720, (S)-2-(3,4-dihydro-2H-pyrano[2,3-b]pyridin-7-yl)-N-(3-(1-((2-ethyl-2H-pyrazolo[3,4-b]pyrazin-6-yl)amino)ethyl)phenyl)acetamide], the IC50 in experiment [1] is less than 300 nM; in experiment [2], not below 1000 nM.

Regarding `Cc1cncc(C(=O)Nc2cccc([C@H](C)Nc3cnc4[nH]cc(C5CC5)c4n3)c2)c1` [Compound 569, (S)-N-(3-(1-((7-cyclopropyl-5H-pyrrolo[2,3-b]pyrazin-2-yl)amino)ethyl)phenyl)-5-methylnicotinamide], the results for the IC50 in experiment [1] and in experiment [2] were 300 to 1000 nM and less than 300 nM, respectively.

`Cc1cncc(C(=O)Nc2cccc([C@H](C)Nc3cnc4[nH]cc(C)c4n3)c2)c1` [Compound 15, (S)-5-methyl-N-(3-(1-((7-methyl-5H-pyrrolo[2,3-b]pyrazin-2-yl)amino)ethyl)phenyl)nicotinamide]: the IC50 in experiment [1] and in experiment [2] was less than 300 nM each time.

In the case of `CCn1cc2ncc(N[C@@H](C)c3cccc(NC(=O)Cc4cc(C)cc(F)c4)c3)nc2n1` [Compound 639, (S)-N-(3-(1-((2-ethyl-2H-pyrazolo[3,4-b]pyrazin-6-yl)amino)ethyl)phenyl)-2-(3-fluoro-5-methylphenyl) acetamide], the IC50 in experiment [1] and in experiment [2] was less than 300 nM throughout.

In the case of `Cc1cncc(C(=O)Nc2cccc([C@H](C)Nc3cnc4ccc(C)cc4n3)c2)c1` [Compound 38, (S)-5-methyl-N-(3-(1-((7-methylquinoxalin-2-yl)amino)ethyl)phenyl)nicotinamide], the IC50 in experiment [1] and in experiment [2] was less than 300 nM in each case.

`CCn1cc2ncc(N[C@@H](C)c3cccc(NC(=O)c4cnc(OCC5CC5)c(C)c4)c3)nc2n1` [Compound 315, (S)-6-(cyclopropylmethoxy)-N-(3-(1-((2-ethyl-2H-pyrazolo[3,4-b]pyrazin-6-yl)amino)ethyl)phenyl)-5-methylnicotinamide]: the IC50 in experiment [1] and in experiment [2] was less than 300 nM each time.

Take `CCn1cc2ncc(N[C@@H](C)c3cccc(NC(=O)c4cnc(COC)s4)c3)nc2n1` [Compound 338, (S)-N-(3-(1-((2-ethyl-2H-pyrazolo[3,4-b]pyrazin-6-yl)amino)ethyl)phenyl)-2-(methoxymethyl)thiazole-5-carboxamide]: the IC50 was less than 300 nM in experiment [1] and 300 to 1000 nM in experiment [2].

`COC(=O)c1ccc(C(=O)Nc2cccc([C@H](C)Nc3cnc4cnn(C)c4n3)c2)cc1` [Compound 211, methyl (S)-4-((3-(1-((1-methyl-1H-pyrazolo[3,4-b]pyrazin-6-yl)amino)ethyl)phenyl)carbamoyl) benzoate]: the IC50 in experiment [1] and in experiment [2] was less than 300 nM in each case.

`CCn1cc2ncc(N[C@@H](C)c3cccc(NC(=O)c4cnc(OC)c(C)c4)c3)nc2n1` [Compound 290, (S)-N-(3-(1-((2-ethyl-2H-pyrazolo[3,4-b]pyrazin-6-yl)amino)ethyl)phenyl)-6-methoxy-5-methylnicotinamide]: the IC50 in experiment [1] and in experiment [2] was less than 300 nM each time.

For the origin of these results see patent US20230102554A1 (GB002, INC., priority 2019, published 2023).
